Tests used:
MDA-MB-231 cells [1] = test: Colony formation assay in MDA-MB-231 cells; assay type: cell-based; conditions: Homo sapiens; MDA-MB-231, 48 hours drug then 10-14 days; read-out: effective concentration (half-maximal), CFA
Experimental: (§1) (A) MTT assay was performed after 24 hours. […] (B) LDH assay was performed after […]. LDH release by untreated cells was set to 1. Relative fold increase is shown (n=3).
(§2) (A) MTT assay was performed after 24 hours. Viability of untreated cells was set at 100% (data points are averages of 2 experiments). (B) LDH assay was performed after 24 hours. LDH release by untreated cells was set to 1. Relative fold increase is shown (averages from 2 experiments). (C) Representative photos show typical colony formation after initial 48 hours of drug treatment. In all cases of combination treatment with 3-BP mixed with […] (3-BP+POH), the indicated concentrations refer to each individual drugs, i.e., 100 μM 3-BP+POH means that 100 μM 3-BP was combined with 100 μM POH.
Depending on the cell line (and plating efficiency), 250-800 cells were seeded into each well of a 6-well plate and treated as described in detail previously. After 12-16 days, colonies (defined as groups of >50 cells) were visualized by staining for 4 hours with 1% methylene blue (in methanol), and then were-counted. Experiments were repeated at least once, but usually more often under different conditions.

[2] = tested on: MDA-MB-231 breast cancer cells; test: LDH release assay in MDA-MB-231 / breast cancer cell lines; assay type: cell-based, human
Experimental: as §1, §2
(§3) The capacity for rapid cell killing by NEO218 relative to 3-BP, POH and 3-BP+POH was evaluated via LDH assay, where LDH release is used as a proxy for cell death.
(§4) In FIG. 4, Panels (a) and (b), show the results of treating breast cancer cell lines with increasing concentrations of NEO218, 3-BP, or 3-BP mixed with POH. […] In all cases a-d, the release of LDH (as a marker of cell death) was measured after 24 hours.
(§5) Depending on the cell line, 2000 to 4000 cells per well were seeded in a volume of 50 μL into a 96-well plate. The next day, drugs ere added in an additional 50 μL of medium. At different time points (usually after 24 hours of incubation), 50 μL medium was removed and processed with the LDH Cytotoxicity Assay Kit (Thermo Fisher Scientific, Waltham, Mass.) according to the manufacturer's instructions. This kit measures extracellular LDH in culture medium using an enzymatic reaction that results in a red formazan product, which can be measured spectrophotometrically. The absorbance was measured at 490 and 680 nm. All LDH levels were normalized to untreated controls and presented as fold change of the controls.

[3] = tested on: HCT116 colon cancer cells; test: LDH release assay in HCT116 cells; assay type: cell-based; conditions: Homo sapiens, HCT-116; HCT116, 16 hours; read-out: half-maximal effect, LDH assay
Experimental: as §1, §3, §4, §5

MDA-MB-231 cells [4] = test: MTT short-term toxicity assay in MDA-MB-231 cells; assay type: cell-based, human
Experimental: as §1, §2
Methylthiazoletetrazolium (MTT) assays were performed as described earlier.

[5] = tested on: MDA-MB-231, T47D, T98G, U251, HCT116 and A2780 cancer cells; test: MTT assay, cell viability after 48 hours in six cancer cell lines; assay type: cell-based, human
Description: The tumor cell-killing potency of NEO218 was characterized by in vitro, short-term MTT assays (measuring viability of cells via determination of metabolic activity), LDH assays (measuring the release of lactate dehydrogenase as an indicator of leaky cell membranes, which are indicative of dying cells), and colony-formation assays (CFA, which determine long-term survival of drug-treated cells and their ability to spawn a colony of descendants). Several established cell lines derived from cancers of the breast were used as target cells (including MDA-MB-231; MDA-MB-468; T47D; MCF7; MCF7/Dox; BTB12), brain (T98G; U251), ovary (A2780), and colon (HCT116). In all cases, cells in culture were exposed to increasing concentrations of agents for 24 or 48 hours.
Cell lines from different cancer types were treated with increasing concentrations of 3-bromopyruvate (3-BP) or NEO218. After 48 hours, cell viability was measured by MTT assay. MDA-MB-231 and T47D are breast cancer cells; T98G and U251 are brain cancer (glioblastoma) cells; HCT116 are colon cancer cells; A2780 are ovarian cancer cells.

tumor cell lines = test: cells; assay type: cell-based, human
Experimental: Different tumor cell lines were treated with 3-BP mixed with POH, and the effects were compared to the effects of NEO218, as well as to 3-BP alone. The cells were treated for 24 hours, and then the MTT assay was conducted to measure cell viability.

[6] = tested on: MDA-MB-231 triple-negative breast cancer cells; test: Subcutaneous MDA-MB-231 xenograft in nude mice; assay type: in vivo; conditions: 5 mg/kg on days 1, 5, 9
Experimental: The anticancer activity of NEO218 in vivo was investigated next. MDA-MB-231 triple-negative breast cancer cells were subcutaneously implanted into 12 nude mice. After two weeks, the animals were separated into 2 groups for treatment with either vehicle (no drug) or NEO218 (5 mg/kg). Then, NEO218 (or vehicle) was administered on days 1, 5, and 9 (3 doses total, 4 days apart). Tumor growth was measured with calipers every 3 days from day 1 (=start of treatment) until day 13 (end of experiment).
The panels show tumor growth over time for each individual animal.

Q: With O=C(O)C(=O)CBr [3-BP, 3-bromopyruvate] as the molecule, how does the IC50 (MDA-MB-231 cells [1]) read?
A: The IC50 was ~130 µM.

Q: And the EC50 ([2]; Homo sapiens, MDA-MB-231, 16 hours, read-out: effective concentration (half-maximal), LDH assay)?
A: The EC50 was ~350 µM.

Q: What about the EC50 [3] of the same molecule?
A: The EC50 was ~8 µM.

Q: And the IC50 (MDA-MB-231 cells [4]; Homo sapiens, MDA-MB-231, 24 hours, read-out: effective concentration (half-maximal), MTT assay)?
A: Its IC50 is ~220 µM.

Q: For C=C(C)[C@@H]1CC=C(COC(=O)C(=O)CBr)CC1 [NEO218, 3-bromo-2-oxo-propionic acid 4-isopropenyl-cyclohex-1-enylmethyl ester], which IC50 ([5]; Homo sapiens, all six cell lines) is on record?
A: The IC50 was 15 to 40 µM.

Q: What about the “cancer cell killing effects compared with 3-BP” value ([5]; MTT) of the same molecule?
A: The value was “more potent cancer cell killing effects than 3-BP in all cell lines”.

Q: And the “earliest detection of cytotoxic effects (LDH release) after onset of drug treatment” value ([2]; MDA-MB-231, time course)?
A: The value was 1 h.

Q: What about the “time at which half-maximal extent of cell death is reached” value ([2]; MDA-MB-231, time course of LDH release) of the same molecule?
A: Its value is < 8 h.

Q: What about the “cytotoxic potency compared with the other treatments” value (tumor cell lines) of the same molecule?
A: The value was “much more potent than any other treatment”.

Q: What about the EC50 [3] of the same molecule?
A: The EC50 was ~8 µM.

Q: And the “potency in MDA-MB-231 compared with HCT116 / with 3-BP alone” value (MDA-MB-231 cells [4]; MTT, LDH and CFA assays)?
A: The value was “maintained the same high potency”.

Q: And the “organ toxicity or other side effects” value [6]?
A: Its value is “organ toxicity or other side effects were not detected”.

Q: And the tolerability in mice [6]?
A: The tolerability in mice was “tolerated this compound quite well”.

Q: And the “tumor growth compared with vehicle group” value [6]?
A: Its value is “slower tumor growth”.

Q: And the “tumor volume at the end of the experiment” value ([6]; day 13, all animals)?
A: Its value is “below 200 cubic millimeters”.

Reference: patent publication US10858305B2, “Perillyl alcohol-3-bromopyruvate conjugate and methods of treating cancer” (NeOnc Technologies, Inc., priority 2016, dated 2020)
